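Values below derive from 48-hour exposures of cells grown in 96-well plates, with endpoints linearly interpolated between the two concentrations bracketing the appropriate inhibition level. At the GI50, growth is halved. TGI marks complete inhibition of growth.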
Assays:
Experiment in all cases: NCI-60 cell line screen, 48 h
786-0 renal = tested on: 786-0 renal
A498 renal = tested on: A498 renal
A549 NSCLC = tested on: A549 NSCLC
ACHN renal = tested on: ACHN renal
BT-549 breast = tested on: BT-549 breast
CAKI-1 renal = tested on: CAKI-1 renal
CCRF-CEM leukemia = tested on: CCRF-CEM leukemia
COLO 205 colon = tested on: COLO 205 colon
DU-145 prostate = tested on: DU-145 prostate
HCC-2998 colon = tested on: HCC-2998 colon
HCT-116 colon = tested on: HCT-116 colon
HCT-15 colon = tested on: HCT-15 colon
HL-60(TB) leukemia = tested on: HL-60(TB) leukemia
HOP-62 NSCLC = tested on: HOP-62 NSCLC
HOP-92 NSCLC = tested on: HOP-92 NSCLC
HS 578T breast = tested on: HS 578T breast
HT29 colon = tested on: HT29 colon
IGROV1 ovarian = tested on: IGROV1 ovarian
K-562 leukemia = tested on: K-562 leukemia
KM12 colon = tested on: KM12 colon
LOX IMVI melanoma = tested on: LOX IMVI melanoma
M14 melanoma = tested on: M14 melanoma
MALME-3M melanoma = tested on: MALME-3M melanoma
MCF7 breast = tested on: MCF7 breast
MDA-MB-231 breast = tested on: MDA-MB-231 breast
MDA-MB-435 = tested on: MDA-MB-435
MOLT-4 leukemia = tested on: MOLT-4 leukemia
NCI-H226 lung = tested on: NCI-H226 lung
NCI-H23 lung = tested on: NCI-H23 lung
NCI-H460 lung = tested on: NCI-H460 lung
NCI-H522 lung = tested on: NCI-H522 lung
NCI/ADR-RES ovarian = tested on: NCI/ADR-RES ovarian
OVCAR-3 ovarian = tested on: OVCAR-3 ovarian
OVCAR-4 ovarian = tested on: OVCAR-4 ovarian
OVCAR-5 ovarian = tested on: OVCAR-5 ovarian
OVCAR-8 ovarian = tested on: OVCAR-8 ovarian
PC-3 prostate = tested on: PC-3 prostate
RPMI-8226 leukemia = tested on: RPMI-8226 leukemia
RXF 393 renal = tested on: RXF 393 renal
SF-268 CNS = tested on: SF-268 CNS
SF-295 CNS = tested on: SF-295 CNS
SF-539 CNS = tested on: SF-539 CNS
SK-MEL-2 melanoma = tested on: SK-MEL-2 melanoma
SK-MEL-28 melanoma = tested on: SK-MEL-28 melanoma
SK-MEL-5 melanoma = tested on: SK-MEL-5 melanoma
SK-OV-3 ovarian = tested on: SK-OV-3 ovarian
SN12C renal = tested on: SN12C renal
SNB-19 CNS = tested on: SNB-19 CNS
SNB-75 CNS = tested on: SNB-75 CNS
SR leukemia = tested on: SR leukemia
SW-620 colon = tested on: SW-620 colon
T-47D breast = tested on: T-47D breast
TK-10 renal = tested on: TK-10 renal
U251 CNS = tested on: U251 CNS
UACC-257 melanoma = tested on: UACC-257 melanoma
UACC-62 melanoma = tested on: UACC-62 melanoma
UO-31 renal = tested on: UO-31 renal

SMILES: Cc1cc(=O)n2nnc3c4ccccc4ccc3n12
- GI50 (786-0 renal): 8.25 µM
- TGI (786-0 renal): 20.6 µM
- GI50 (A498 renal): 11.2 µM
- TGI (A498 renal): 23.2 µM
- GI50 (A549 NSCLC): 10.8 µM
- TGI (A549 NSCLC): 23.8 µM
- GI50 (ACHN renal): 1.58 µM
- TGI (ACHN renal): 2.97 µM
- GI50 (BT-549 breast): 7.76 µM
- TGI (BT-549 breast): 21.1 µM
- GI50 (CAKI-1 renal): 1.64 µM
- TGI (CAKI-1 renal): 3.33 µM
- GI50 (CCRF-CEM leukemia): 1.06 µM
- TGI (CCRF-CEM leukemia): 3.91 µM
- GI50 (COLO 205 colon): 2.97 µM
- TGI (COLO 205 colon): 8.77 µM
- GI50 (DU-145 prostate): 11.3 µM
- TGI (DU-145 prostate): 23.4 µM
- GI50 (HCC-2998 colon): 16.5 µM
- TGI (HCC-2998 colon): 30.9 µM
- GI50 (HCT-116 colon): 1.85 µM
- TGI (HCT-116 colon): 3.46 µM
- GI50 (HCT-15 colon): 2.86 µM
- TGI (HCT-15 colon): 10.4 µM
- GI50 (HL-60(TB) leukemia): 11.5 µM
- TGI (HL-60(TB) leukemia): 37.2 µM
- GI50 (HOP-62 NSCLC): 6.11 µM
- TGI (HOP-62 NSCLC): 20.9 µM
- GI50 (HOP-92 NSCLC): 0.942 µM
- TGI (HOP-92 NSCLC): 15 µM
- GI50 (HS 578T breast): 15.2 µM
- TGI (HS 578T breast): 49 µM
- GI50 (HT29 colon): 2.36 µM
- TGI (HT29 colon): 5.57 µM
- GI50 (IGROV1 ovarian): 1.96 µM
- TGI (IGROV1 ovarian): 4.52 µM
- GI50 (K-562 leukemia): 1.8 µM
- TGI (K-562 leukemia): 7.85 µM
- GI50 (KM12 colon): 10.6 µM
- TGI (KM12 colon): 22.6 µM
- GI50 (LOX IMVI melanoma): 4.42 µM
- TGI (LOX IMVI melanoma): 16.2 µM
- GI50 (M14 melanoma): 13.5 µM
- TGI (M14 melanoma): 27.1 µM
- GI50 (MALME-3M melanoma): 2.08 µM
- TGI (MALME-3M melanoma): 8.19 µM
- GI50 (MCF7 breast): 2.86 µM
- TGI (MCF7 breast): 10.5 µM
- GI50 (MDA-MB-231 breast): 11.4 µM
- TGI (MDA-MB-231 breast): 23.7 µM
- GI50 (MDA-MB-435): 14.3 µM
- TGI (MDA-MB-435): 29.9 µM
- GI50 (MOLT-4 leukemia): 3.39 µM
- TGI (MOLT-4 leukemia): 19.5 µM
- GI50 (NCI-H226 lung): 7.64 µM
- TGI (NCI-H226 lung): 27.1 µM
- GI50 (NCI-H23 lung): 12.4 µM
- TGI (NCI-H23 lung): 27.9 µM
- GI50 (NCI-H460 lung): 13.9 µM
- TGI (NCI-H460 lung): 30.4 µM
- GI50 (NCI-H522 lung): 1.54 µM
- TGI (NCI-H522 lung): 2.93 µM
- GI50 (NCI/ADR-RES ovarian): 3.87 µM
- TGI (NCI/ADR-RES ovarian): 43.9 µM
- GI50 (OVCAR-3 ovarian): 1.79 µM
- TGI (OVCAR-3 ovarian): 3.37 µM
- GI50 (OVCAR-4 ovarian): 1.5 µM
- TGI (OVCAR-4 ovarian): 3.27 µM
- GI50 (OVCAR-5 ovarian): 1.84 µM
- TGI (OVCAR-5 ovarian): 14.7 µM
- GI50 (OVCAR-8 ovarian): 2.03 µM
- TGI (OVCAR-8 ovarian): 6.97 µM
- GI50 (PC-3 prostate): 4.22 µM
- TGI (PC-3 prostate): 17.7 µM
- GI50 (RPMI-8226 leukemia): 0.959 µM
- TGI (RPMI-8226 leukemia): 4.03 µM
- GI50 (RXF 393 renal): 10.8 µM
- TGI (RXF 393 renal): 22.8 µM
- GI50 (SF-268 CNS): 11 µM
- TGI (SF-268 CNS): 23.1 µM
- GI50 (SF-295 CNS): 14.8 µM
- TGI (SF-295 CNS): 30.2 µM
- GI50 (SF-539 CNS): 3.5 µM
- TGI (SF-539 CNS): 16.7 µM
- GI50 (SK-MEL-2 melanoma): 16.5 µM
- TGI (SK-MEL-2 melanoma): 30.6 µM
- GI50 (SK-MEL-28 melanoma): 13.9 µM
- TGI (SK-MEL-28 melanoma): 27.1 µM
- GI50 (SK-MEL-5 melanoma): 12.8 µM
- TGI (SK-MEL-5 melanoma): 25.7 µM
- GI50 (SK-OV-3 ovarian): 2.72 µM
- TGI (SK-OV-3 ovarian): 20.3 µM
- GI50 (SN12C renal): 7.34 µM
- TGI (SN12C renal): 21.5 µM
- GI50 (SNB-19 CNS): 12.8 µM
- TGI (SNB-19 CNS): 25.4 µM
- GI50 (SNB-75 CNS): 14.9 µM
- TGI (SNB-75 CNS): 29.9 µM
- GI50 (SR leukemia): 2.28 µM
- TGI (SR leukemia): 13.7 µM
- GI50 (SW-620 colon): 1.63 µM
- TGI (SW-620 colon): 3.11 µM
- GI50 (T-47D breast): 1.38 µM
- TGI (T-47D breast): 3.14 µM
- GI50 (TK-10 renal): 1.68 µM
- TGI (TK-10 renal): 3.2 µM
- GI50 (U251 CNS): 14.9 µM
- TGI (U251 CNS): 28.1 µM
- GI50 (UACC-257 melanoma): 13 µM
- TGI (UACC-257 melanoma): 25.7 µM
- GI50 (UACC-62 melanoma): 5.3 µM
- TGI (UACC-62 melanoma): 18.6 µM
- GI50 (UO-31 renal): 1.2 µM
- TGI (UO-31 renal): 2.72 µM
